This is an account of results in patent publication US20110263526A1, “Nitric Oxide Releasing Prodrugs of Therapeutic Agents” (PIRAMAL LIFE SCIENCES LIMITED, priority 2010, published 2011).

Each structure is given as a SMILES string. “Also recorded” adds a separate entry of the source.

The subject of data set [1] is carrageenan-induced rat paw edema. Kind of data set: Anti-inflammatory activity in carrageenan-induced rat paw edema model. Type of data set: in vivo, male Sprague-Dawley rats. Particulars: for Anti-inflammatory activity (% Inhibition) @ 3 hours / Anti-inflammatory activity (% Inhibition) @ 5 hours: inhibition of paw edema vs control, Mean ± SEM, n = 8; for Anti-inflammatory activity (% Inhibition) @ 3 hours: oral dose containing 5 mg/kg of naproxen in PEG 400, 3 hours after carrageenan; for Anti-inflammatory activity (% Inhibition) @ 5 hours: oral dose containing 5 mg/kg of naproxen in PEG 400, 5 hours after carrageenan. The method, then:
[…] […] One hour later, carrageenan (100 μl, 1% w/v) was injected in to their paws. The control group received PEG 400 (1 ml/kg).

The subject of a further data set is rats. Kind of data set: Ulcerogenic activity (gastric ulcer lesions) in rats. The class given is in vivo. Particulars: dose containing 100 mg/kg of naproxen; for Gastric ulcers (Mean ± SEM) (mm^2) @ 100 mg/kg eq. @ 5 hours: overnight fasted rats, sacrificed after 5 h, total area of lesions; for Ulcer development (in words): rats, 5 h. The protocol: The animals were sacrificed after 5 h of drug administration. The stomachs of the animals treated were separated, perfused with 2% formalin (10 ml), and then a large curvature was excised. The severity of the mucosal damage was assessed on the basis of the size of the observed ulcer lesions in the images captured using a stereomicroscope attached to a digital camera (Stemi 2000, Zeiss, Germany). The Image Pro Plus software (version 5.1) was used to quantify the hemorrhagic/ulcer lesions in pixels and converted into mm^2. The total area of lesions were calculated for each treatment group and the measure of gastric ulcers (Mean±SEM) (mm^2) presented in Table 3.

A further data set relates to TA100. Kind of data set: Ames test: toxicity test using TA100 strain. Type of data set: cell-based, Salmonella typhimurium. The note with it: up to 5000 μg/plate (10-5000 μg/plate). The source says:
(§1) AMES test or bacterial reverse mutation test uses five mutant strains (i.e., TA98, TA100, TA1535, TA1537, TA102) of Salmonella typhimurium to test the mutagenicity of chemical substances (Kristien Mortelmans and Errol Zeiger, The Ames Salmonella/microsome mutagenicity assay, Mutation Research 2000, 455, 29-60 and the relevant reference cited therein). These mutants are called his mutants because of their dependence on an external source of histidine to grow. The test also uses one trp mutant strain WP2 uvrA (which needs external supply of tryptophan for its growth) of Escherichia coli (Kristein Mortelmans and Edward S. Riccio, The bacterial tryptophan reverse mutation assay with Escherichia coli WP2, Mutation Research 2000, 455, 61-69 and the relevant references cited therein). If the bacteria are incubated in the presence of a mutagen, a reverse mutation is induced, and the bacteria will grow. However, if the chemical substance is not mutagenic, there will be no reversion and thus no growth. The result is thus obtained in the absence of metabolic activation. Because many chemicals that are poor mutagens become potent mutagens after they have passed through the liver, homogenate of rat liver, called the S9 extract, are added to the bacteria before incubation. The bacteria/S9 mixture is then plated on a medium containing no histidine (use of tryptophan-deficient medium in case of E. coli strain), and the test chemical is placed in the center of the plate. The result is thus obtained in the presence of metabolic activation. A second plate that contains a non-mutagenic solvent as a negative control and a third plate that contains a known mutagen as a positive control are also run simultaneously. All the 3 types of plates (each type of plate, in fact, run simultaneously in triplicate for obtaining statistically significant data) are incubated for 48 hours at 37° C. The above procedure is called the plate incorporation method. The presence of numerous colonies of revertants in the test disk indicates a positive result: that is, the chemical substance is a mutagen (i.e., mutagenic if the increase in revertants is >2 fold for TA98, TA100, TA102 and WP2/uvrA or >3 fold for TA1535 and TA1537). Also, a positive result would be considered reliable when there is a dose-dependent increase in revertants at any two consecutive non-toxic concentrations which can be in the range of 10-5000 μg/plate. The presence of only a few spontaneous revertant colonies indicates a negative result. If a negative or equivocal result is obtained, the pre-incubation method is performed in which the cells are exposed to the test compounds for 30 min before plating. Also, before Ames test is initiated, a toxicity test on the chemical substance is performed using TA100 strain in the concentration range of 10-5000 μg/plate. […] When the test substance is found to be toxic at higher concentration range then the genotoxicity of that material is tested only in the non-toxic lower concentration range.

Data set [2] relates to Salmonella strains TA100, TA98, TA1535, TA1537 and TA102 and Escherichia coli strain WP2 uvrA. Nature of the data set: AMES genotoxicity assay (bacterial reverse mutation test), six strains. Particulars: up to 5000 μg/plate (10-5000 μg/plate). Type of data set: cell-based, Salmonella typhimurium; Escherichia coli.
Source text: as §1

Regarding `COc1ccc2cc([C@H](C)C(=O)OC/C=C\COC(=O)OC(C)O[N+](=O)[O-])ccc2c1` (stereo partly drawn) [I-CD1-L2-R1, (2S)-((Z)-4-((1-(nitrooxy)ethoxy)carbonyloxy)but-2-enyl) 2-(6-methoxynaphthalen-2-yl)propanoate], the melting point is 76 to 78 °C. The “Anti-inflammatory activity (in words)” value in data set [1] (carrageenan-induced rat paw edema model, dose containing 5 mg/kg of naproxen) was “anti-inflammatory activity comparable to that of naproxen”. Also, in data set [1], the “Anti-inflammatory activity (% Inhibition) @ 3 hours” value is 54.27 ± 5.31% and the “Anti-inflammatory activity (% Inhibition) @ 5 hours” value came out at 36.61 ± 8.92%. Also, in the data set with rats, the “Gastric ulcers (Mean ± SEM) (mm^2) @ 100 mg/kg eq. @ 5 hours” value is 0 ± 0 mm^2 and the “Ulcer development (in words)” value is given as “none of the animals treated with the nitric oxide releasing prodrug of naproxen, I-CD1-L2-R1 showed any signs of development of ulcers”. For the same compound, in the data set on TA100, the “Toxicity to TA100” value is given as “non-toxic to TA100”. Further, the “Genotoxicity to 6 strains” value in data set [2] is given as “non-mutagenic in all the aforementioned six bacterial strains; also recorded: Non-genotoxic”.
For `COc1ccc2cc([C@H](C)C(=O)OCCSSCCOC(=O)OC(C)O[N+](=O)[O-])ccc2c1` (stereo partly drawn) [I-CD1-L1-R1, (2S)-2-((2-((1-(nitrooxy)ethoxy)carbonyloxy)ethyl)disulfanyl)ethyl 2-(6-methoxynaphthalen-2-yl)propanoate], the “Toxicity to TA100” value with TA100 was “non-toxic to TA100”. Also, the “Genotoxicity to 6 strains” value in data set [2] is “non-mutagenic in all the aforementioned six bacterial strains; also recorded: Non-genotoxic”.
For the compound `COc1ccc2cc([C@H](C)C(=O)O)ccc2c1` [Naproxen, naproxen, reference compound], in data set [1], the “Anti-inflammatory activity (% Inhibition) @ 3 hours” value is 65.45 ± 5.84% and the “Anti-inflammatory activity (% Inhibition) @ 5 hours” value is reported as 49.09 ± 10.35%. For the same compound, in the data set with rats, the “Gastric ulcers (Mean ± SEM) (mm^2) @ 100 mg/kg eq. @ 5 hours” value came to 75 ± 13 mm^2 and the “Ulcer development (in words)” value is reported as “severe haemorrhagic lesions”.
`COc1ccc2cc([C@H](C)C(=O)OCCS(=O)(=O)CCOC(=O)OC(C)O[N+](=O)[O-])ccc2c1` (stereo partly drawn) [I-CD1-L17-R1, (2S)-2-(2-((1-(nitrooxy)ethoxy)carbonyloxy)ethylsulfonyl)ethyl 2-(6-methoxynaphthalen-2-yl)propanoate] returned a melting point of 98 to 100 °C. In addition, in the data set on TA100, the “Toxicity to TA100” value is given as “Non-toxic”. In data set [2], the “Genotoxicity to 6 strains” value was “Non-mutagenic with TA 1535”.
For the compound `CC(=O)Nc1ccc(OC(=O)c2ccc(COC(=O)OC(C)O[N+](=O)[O-])cc2)cc1` (centres unmarked) [HD5-L20-R1, 4-Acetamidophenyl 4-(((1-(nitrooxy)ethoxy)carbonyloxy)methyl)benzoate], the melting point lay within 149 to 152 °C.
Take `COc1ccc2cc([C@H](C)C(=O)OCC[S+]([O-])CCOC(=O)OC(C)O[N+](=O)[O-])ccc2c1` (stereo partly drawn) [I-CD1-L16-R1, (2S)-2-(2-((1-(nitrooxy)ethoxy)carbonyloxy)ethylsulfinyl)ethyl 2-(6-methoxynaphthalen-2-yl)propanoate]: the melting point was 112 to 115 °C. Moreover, the “Toxicity to TA100” value with TA100 was “non-toxic to TA100”. The “Genotoxicity to 6 strains” value in data set [2] is on record as “non-mutagenic in all the aforementioned six bacterial strains; also recorded: Non-genotoxic”.
In the case of `CCCC1O[C@@H]2C[C@H]3[C@@H]4CCC5=CC(=O)C=C[C@]5(C)[C@H]4[C@@H](O)C[C@]3(C)[C@]2(C(=O)COC(=O)c2ccc(COC(=O)OC(C)O[N+](=O)[O-])cc2)O1` (some centres unmarked) [I-HD4-L20-R1], the “Toxicity to TA100” value in the data set on TA100 is “Non-toxic”. In addition, in data set [2], the “Genotoxicity to 6 strains” value is “Non-mutagenic with TA 1535”.
Compound `CC(OC(=O)OC/C=C\COC(=O)C[C@H](O)C[C@H](O)CCn1c(-c2ccc(F)cc2)c(-c2ccccc2)c(C(=O)Nc2ccccc2)c1C(C)C)O[N+](=O)[O-]` (stereo partly drawn) [I-CD8-L2-R1, (3R,5R)-((Z)-4-((1-(nitrooxy)ethoxy)carbonyloxy)but-2-enyl) 7-(2-(4-fluorophenyl)-5-isopropyl-3-phenyl-4-(phenylcarbamoyl)-1H-pyrrol-1-yl)-3,5-dihydroxyheptanoate] registered a melting point of 56 to 58 °C.
As for `COc1ccc2cc([C@H](C)C(=O)OCCCSCCCOC(=O)OC(C)O[N+](=O)[O-])ccc2c1` (stereo partly drawn) [I-CD1-L18-R1, (2S)-3-(3-((1-(nitrooxy)ethoxy)carbonyloxy)propylthio)propyl 2-(6-methoxynaphthalen-2-yl)propanoate], in the data set on TA100, the “Toxicity to TA100” value was “non-toxic to TA100”. Moreover, the “Genotoxicity to 6 strains” value in data set [2] is given as “non-mutagenic in all the aforementioned six bacterial strains; also recorded: Non-genotoxic”.
With `COc1ccc2cc([C@H](C)C(=O)OCCCOC(=O)OC(C)O[N+](=O)[O-])ccc2c1` (stereo partly drawn) [I-CD1-L4-R1, (2S)-3-((1-(nitrooxy)ethoxy)carbonyloxy)propyl 2-(6-methoxynaphthalen-2-yl) propanoate], the “Toxicity to TA100” value in the data set on TA100 is given as “non-toxic to TA100”. Further, the “Genotoxicity to 6 strains” value in data set [2] is on record as “non-mutagenic in all the aforementioned six bacterial strains; also recorded: Non-genotoxic”.
In turn, `CCCCc1nc(Cl)c(COC(=O)c2ccc(COC(=O)OC(C)O[N+](=O)[O-])cc2)n1Cc1ccc(-c2ccccc2-c2nnn[nH]2)cc1` (centres unmarked) [HD6-L20-R1, (1-((2′-(1H-Tetrazol-5-yl)biphenyl-4-yl)methyl)-2-butyl-4-chloro-1H-imidazol-5-yl)methyl 4-(((1-(nitrooxy)ethoxy)carbonyloxy)methyl)benzoate] displayed a melting point of 107 to 109 °C.
